Values quoted from earlier work in patent US20070009589A1, “EXTENDED RELEASE COMPOSITIONS” (priority 2005, published 2007).

What was measured:
[1] = in water

SMILES	water solubility [1]	Log P
COCCc1ccc(OCC(O)CNC(C)C)cc1 (racemic) [Metoprolol succinate, (±)-1-(isopropylamino)-3-[p-(2-methoxyethyl)phenoxy]-2-propanol succinate (2:1)]	freely soluble in water	
COCCc1ccc(OCC(O)CNC(C)C)cc1 (stereo not drawn) [Metoprolol]	low water solubility	2.48
